Assay results from US10196363B2, “Dihydropyrimidin-2-one compounds and medical use thereof” (JAPAN TOBACCO INC., priority 2014, dated 2019).
pEC50: −log10 of the molar value. Read-outs that look alike come from different tables or passages of the source.

What was measured:
human RORγ = target: T1, human RORγ (Homo sapiens, UniProt P51449); test: In vitro assay of inhibitory effect against RORγ transcriptional activity (GAL4-hRORγ LBD luciferase reporter gene assay in CHO cells); type: cell-based; conditions: for hRORγ luciferase activity, %-of-control: vehicle-control 0.2% DMSO alone = 100%
T1 construct: human RORγ, from Ser253 to Lys518; expressed in transfected cells; host or cells: CHO cells (Chinese hamster ovary), transient co-transfection with pG5-Luc
T1 sequence (P51449 253-518): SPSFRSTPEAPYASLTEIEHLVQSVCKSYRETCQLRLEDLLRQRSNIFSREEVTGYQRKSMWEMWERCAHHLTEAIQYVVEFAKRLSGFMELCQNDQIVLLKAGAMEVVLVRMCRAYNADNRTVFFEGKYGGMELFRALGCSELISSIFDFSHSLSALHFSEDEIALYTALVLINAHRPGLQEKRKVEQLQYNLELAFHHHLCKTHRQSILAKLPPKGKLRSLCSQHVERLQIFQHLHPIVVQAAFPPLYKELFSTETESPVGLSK
Method in brief: (§1)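 GAL4-DBD fused to RORγ LBD (human Ser253–Lys518; mouse Ile251–Lys516) was transiently co-transfected with GAL4-driven pG5-Luc firefly luciferase into CHO cells. Cells were treated with 8 concentrations of compound (0.2% DMSO) for 2 days at 37 °C, then luminescence was read. EC50 was fitted from %-of-vehicle control.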

mouse RORγ = target: T2, mouse RORγ (Mus musculus, UniProt P51450); test: In vitro assay of inhibitory effect against RORγ transcriptional activity (GAL4-mRORγ LBD luciferase reporter gene assay in CHO cells); type: cell-based; conditions: for mRORγ luciferase activity, %-of-control: vehicle-control 0.2% DMSO alone = 100%
T2 construct: mouse RORγ, from Ile251 to Lys516; expressed in transfected cells; host or cells: CHO cells (Chinese hamster ovary), transient co-transfection with pG5-Luc
T2 sequence (P51450 251-516): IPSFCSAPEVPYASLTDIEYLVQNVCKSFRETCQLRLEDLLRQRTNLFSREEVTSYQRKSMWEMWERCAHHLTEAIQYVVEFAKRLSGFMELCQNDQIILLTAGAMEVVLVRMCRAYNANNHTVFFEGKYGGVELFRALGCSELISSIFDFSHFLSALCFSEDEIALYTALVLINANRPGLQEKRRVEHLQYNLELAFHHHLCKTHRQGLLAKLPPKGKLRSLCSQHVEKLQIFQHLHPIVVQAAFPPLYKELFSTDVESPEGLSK
Method in brief: as §1

[1] = GAL4-hRORγ LBD / pG5-Luc in CHO cells, 2 days incubation
[2] = GAL4-mRORγ LBD / pG5-Luc in CHO cells, 2 days incubation
[3] = value in parentheses beside the > EC50 bound
[4] = GAL4-hRORγ LBD luciferase reporter, CHO cells, read-out: LUC EC50 hRORγ
[5] = GAL4-mRORγ LBD luciferase reporter, CHO cells, read-out: LUC EC50 mRORγ
[6] = value in parentheses beside the EC50 bound

| pEC50 (human RORγ; [1]) | pEC50 (mouse RORγ; [2]) | pEC50 (human RORγ; [4]) | pEC50 (mouse RORγ; [5]) | SMILES | also measured |
| --- | --- | --- | --- | --- | --- |
| 6.01 | 6.10 | – | – | CC(C)C1=CN(CCc2ccccc2C(=O)O)C(=O)N[C@]1(C)c1ccc(CCC(C)(C)C)c(Cl)c1 [Example 82] | – |
| 8.10 | 7.82 | – | – | CC(C)C1=CN(CCC(=O)O)C(=O)N[C@@]1(C)c1ccc(C2CC2C(C)(C)C)c(Cl)c1 (single isomer, unassigned) [Example 169] | – |
| 6.30 | 6.12 | – | – | CC(C)C1=CN(CCC2(C(=O)O)CC2)C(=O)N[C@]1(C)c1ccc(CCC(C)(C)C)c(Cl)c1 [Example 71] | – |
| < 5.49 | < 5.10 | – | – | CC(C)C1=CN(CCC(=O)O)C(=O)N[C@]1(C)c1ccc(C2CCC(C)(C)CC2)c(Cl)c1 [Example 117] | hRORγ luciferase activity, %-of-control (human RORγ; [3]): (106%); mRORγ luciferase activity, %-of-control (mouse RORγ; [3]): (76%) |
| – | – | 7.40 | 7.62 | CC(C)C1=CN(CCC(=O)O)C(=O)N[C@@]1(C)c1ccc(C#CC(C)(C)C)c(Cl)c1 [Example 317] | – |
| 6.82 | 6.96 | – | – | CC(C)(C)COc1ccc(C2NC(=O)NC=C2C(C)(C)CCC(=O)O)cc1Cl (racemic) [Example 7] | – |
| – | – | 5.95 | 6.11 | CC(C)C1=CN(CCC(=O)O)C(=O)N[C@@]1(C)c1ccc(C=C2CCOCC2)c(Cl)c1 [Example 289] | – |
| – | – | 7.17 | 7.47 | CC(C)C1=CN(CCC(=O)O)C(=O)N[C@@]1(C)c1ccc(CCC(C)(C)F)c(Cl)c1 [Example 294] | – |
| 6.10 | 6.18 | – | – | CC(C)C1=CN(C(C)CCC(=O)O)C(=O)NC1(C)c1ccc(CCC(C)(C)C)c(Cl)c1 (stereo not shown) [Example 73] | – |
| > 7.49 | > 7.49 | – | – | CC(C)C1=CN(CCC(=O)O)C(=O)N[C@@]1(C)c1ccc(OCCC(C)(C)C)c(Cl)c1 [Example 125] | – |
| > 7.49 | > 7.49 | – | – | CC(C)C1=CN(CCC(C)C(=O)O)C(=O)NC1(C)c1ccc(CCC(C)(C)C)c(Cl)c1 (single isomer, unassigned) [Example 25] | – |
| 6.30 | 6.59 | – | – | CC(C)OCc1ccc([C@]2(C)NC(=O)N(CCC(=O)O)C=C2C(C)C)cc1Cl [Example 157] | – |
| 7.72 | 7.80 | – | – | CC(C)C1=CN(C2CCC(C(=O)O)C2)C(=O)N[C@@]1(C)c1ccc(CCC(C)(C)C)c(Cl)c1 (single isomer, unassigned) [Example 64] | – |
| 7.96 | 8.00 | – | – | CC(C)C1=CN(CCCC(=O)O)C(=O)N[C@@]1(C)c1ccc(CCC2CCC2)c(Cl)c1 [Example 110] | – |
| – | – | 7.07 | 7.03 | CC(C)C1=CN(CCC(=O)O)C(=O)N[C@@]1(C)c1ccc(CC(O)C(C)(C)C)c(Cl)c1 (single isomer, unassigned) [Example 311] | – |
| 7.19 | 7.31 | – | – | CC(C)C1=CN(CCC(=O)O)C(=O)NC1(C)c1ccc(C2CCCC(C)(C)C2)c(Cl)c1 (single isomer, unassigned) [Example 167] | – |
| – | – | 6.97 | 6.83 | CC(C)C1=CN(C2CN(S(C)(=O)=O)CC2C(=O)O)C(=O)N[C@@]1(C)c1ccc(CCC(C)(C)C)c(Cl)c1 (single isomer, unassigned) [Example 240] | – |
| – | – | 6.88 | 7.25 | COc1cc([C@]2(C)NC(=O)N(CCC(=O)O)C=C2C(C)C)ccc1CCC(C)(C)C [Example 213] | – |
| 7.74 | 7.85 | – | – | CC(C)C1=CN(CCC(=O)O)C(=O)N[C@@]1(C)c1ccc(CCC2(C)CC2)c(Cl)c1 [Example 132] | – |
| < 5.49 | < 5.49 | – | – | CC(C)C1=CN(CCC(=O)O)C(=O)N[C@]1(C)c1ccc(CCCC(C)(C)C)c(Cl)c1 [Example 123] | hRORγ luciferase activity, %-of-control (human RORγ; [3]): (109%); mRORγ luciferase activity, %-of-control (mouse RORγ; [3]): (100%) |
| – | – | 6.96 | 7.28 | C[C@@]1(c2ccc(OCCC3CC3)c(Cl)c2)NC(=O)N(c2ccc(C(=O)O)cc2)C=C1C1CC(F)(F)C1 [Example 350] | – |
| 6.60 | 6.88 | – | – | CCCCc1ccc(C2(C)NC(=O)N(CCCC(=O)O)C=C2C(C)C)cc1F (racemic) [Example 70] | – |
| – | – | 7.77 | 7.82 | CC(C)(C)C1=CN(CCC(=O)O)C(=O)N[C@@]1(C)c1ccc(CC2CCCCC2)c(Cl)c1 [Example 339] | – |
| 6.13 | 6.30 | – | – | CCCCc1ccc(C2(C)NC(=O)N(CCCC(=O)O)C=C2C(C)C)cc1 (racemic) [Example 84] | – |

| pEC50 (human RORγ; [1]) | pEC50 (mouse RORγ; [2]) | pEC50 (human RORγ; [4]) | pEC50 (mouse RORγ; [5]) | SMILES | also measured |
| --- | --- | --- | --- | --- | --- |
| – | – | 8.22 | 8.15 | COCCC1=CN(c2ccc(C(=O)O)cc2)C(=O)N[C@@]1(C)c1ccc(CCC(C)(C)C)c(Cl)c1 [Example 210] | – |
| 7.77 | 7.77 | – | – | CCC(CC)Cc1ccc([C@]2(C)NC(=O)N(CCC(=O)O)C=C2C(C)C)cc1Cl [Example 177] | – |
| 7.38 | 7.39 | – | – | CC(C)(C)CCc1ccc(C2(C)NC(=O)N(CCCC(=O)O)C=C2CC(C)(C)C)cc1Cl (racemic) [Example 23] | – |
| 6.84 | 7.34 | – | – | CC1=CN(CCCC(=O)O)C(=O)N[C@@]1(C)c1ccc(CCC(C)(C)C)c(Cl)c1 [Example 61] | – |
| – | – | 7.70 | 7.55 | CC(C)(C)CCc1ccc([C@]2(C)NC(=O)N(c3ccc(C(=O)O)cc3)C=C2C2CC(F)(F)C2)cc1Cl [Example 252] | – |
| 5.52 | 5.85 | – | – | CC(C)C1=CN(CCC(=O)O)C(=O)N[C@@]1(C)c1ccc2c(c1)CC(C)(C)C2 [Example 113] | – |
| 7.49 | 7.68 | – | – | CC(C)(C)CCc1ccc(C2NC(=O)N([C@H]3C[C@H](C(=O)O)C3)C=C2C(C)(C)C)cc1Cl (single isomer, unassigned) [Example 101] | – |
| 7.21 | 7.85 | – | – | CC(C)C1=CN(CCC(=O)O)C(=O)N[C@@]1(C)c1ccc(CCC2CCCC2)c(Cl)c1 [Example 120] | – |
| – | – | 6.59 | 6.44 | CC(C)(C)CCc1ccc([C@]2(C)NC(=O)N(c3ccc(C(=O)O)cc3)C=C2CCCOC(C)(C)C)cc1Cl [Example 313] | – |
| 7.82 | 7.40 | – | – | COCCN1C=C(C(C)(C)CCC(=O)O)C(C)(c2ccc(CCC(C)(C)C)c(Cl)c2)NC1=O (single isomer, unassigned) [Example 160] | – |
| – | – | 7.59 | 7.74 | COc1cc(N2C=C(C3CC(F)(F)C3)[C@](C)(c3ccc(CCC(C)(C)C)c(Cl)c3)NC2=O)ccc1C(=O)O [Example 346] | – |
| 7.04 | 6.94 | – | – | CC(C)C1=CN(C23CC(C(=O)O)(C2)C3)C(=O)N[C@@]1(C)c1ccc(CCC(C)(C)C)c(Cl)c1 [Example 186] | – |
| 8.00 | 7.82 | – | – | CC(C)(C)CCc1ccc([C@]2(C)NC(=O)N(CCCC(=O)O)C=C2C2(C)CC2)cc1Cl [Example 52] | – |
| 6.82 | 6.70 | – | – | CC(C)C1=CN(CCOCC(=O)O)C(=O)NC1(C)c1ccc(CCC(C)(C)C)c(Cl)c1 (single isomer, unassigned) [Example 40] | – |
| 5.41 | 5.70 | – | – | CC(C)C1=CN([C@H]2C[C@H](CC(=O)O)C2)C(=O)N[C@]1(C)c1ccc(CCC(C)(C)C)c(Cl)c1 (single isomer, unassigned) [Example 107] | – |
| – | – | 7.72 | 7.64 | CC(C)C1=CN(C23CCC(C(=O)O)(CC2)C3)C(=O)N[C@@]1(C)c1ccc(CCC(C)(C)C)c(Cl)c1 [Example 269] | – |
| 5.87 | 5.51 | – | – | CC(C)C1=CN(CC2(C(=O)O)CC2)C(=O)N[C@]1(C)c1ccc(CCC(C)(C)C)c(Cl)c1 [Example 97] | – |
| – | – | 6.95 | 6.61 | CC(C)(C)CCc1ccc([C@]2(C)NC(=O)N(CCC(=O)O)C=C2[C@H]2C[C@@H](CO)C2)cc1Cl [Example 241] | – |
| – | – | 7.59 | 7.38 | CC(C)C1=CN(C2CCC(C(=O)O)C2)C(=O)N[C@@]1(C)c1ccc(CCC(C)(C)C)c(Cl)c1 (single isomer, unassigned) [Example 280] | – |
| – | – | 7.13 | 7.30 | CC(C)[C@H]1C[C@@H](c2ccc([C@]3(C)NC(=O)N([C@H]4C[C@H](C(=O)O)C4)C=C3C3CC(F)(F)C3)cc2Cl)C1 [Example 329] | – |
| 6.76 | 7.20 | – | – | CC(C)(C)C#Cc1ccc(C2NC(=O)N(CCCC(=O)O)C=C2C(C)(C)C)cc1Cl (racemic) [Example 187] | – |
| 6.28 | 6.78 | – | – | CC(C)C1=CN(CCC(=O)O)C(=O)N[C@@]1(C)c1ccc(C2CCCC2)c(Cl)c1 [Example 156] | – |
| – | – | < 4.70 | < 4.70 | CC(C)C1=CN(CCC(=O)O)C(=O)N[C@@]1(C)c1ccc(CCC(C)(C)C(=O)O)c(Cl)c1 [Example 261] | hRORγ luciferase activity, %-of-control (human RORγ; [6]): (90%); mRORγ luciferase activity, %-of-control (mouse RORγ; [6]): (100%) |
